One assay deals with Lck (Homo sapiens (Human), UniProt P06239). The assay is described as follows: Lck inhibitory activity (Z'-LYTE Kinase Assay Kit-Tyr 2 Peptide, FRET). The class given is biochemical. Here is the method:
The Lck activity was determined by using Fluorescence Resonance Energy Transfer (FRET) method.
A dilute solution (5 μL) of the compound of the present invention in dimethylsulfoxide (DMSO; Sigma-Aldrich Co. LLC) was added to a 96-well assay plate. In addition, Peptide/Kinase Buffer composed of DL-dithiothreitol (DTT; 2 mM), Tyr 2 Peptide (2 μM), Kinase Buffer and Lck was added to the assay plate, and the reaction solution was preincubated at 25° C. for 20 minutes. […] After incubation, Coloring Solution A (10 μL) composed of Coloring Reagent B and Coloring Buffer was added, and the reaction solution was incubated at 25° C. for 1 hour. Stop Reagent (10 μL) was added to each well such that the enzymatic reaction stopped. The fluorescent coloring of each well was measured on a fluorescent plate reader by using wavelengths of 445 nm and 520 nm. The ratio of phosphorylation was determined by a ratio of coloring at 445 nm to that at 520 nm according to the attached manual.
The inhibition rate (%) of the compound of the present invention was calculated according to the following Numerical Formula 2. Inhibition rate (%)={1−(AX−AB)/(AC−AB)}×100 [Numerical Formula 2]
AX: Ratio of phosphorylation at addition of the compound of the present invention
AB: Ratio of phosphorylation in blank
AC: Ratio of phosphorylation at addition of only DMSO

The target in another assay is Syk kinase (Homo sapiens (Human), UniProt P43405). In words: Syk inhibitory activity (mobility shift, QuickScout Screening Assist MSA). The class given is biochemical. Particulars: read-out: Syk inhibitory activity (Inhibition rate at 1 μM of compound). How it is done:
The compound of the present invention was dissolved in DMSO to prepare a solution with a concentration of 100 times the test concentration of 1 μmol/L. The solution was further diluted 25-fold with Assay Buffer (20 mmol/L HEPES, 0.01% Triton X-100, 2 mmol/L DTT, pH 7.5) to give a test substance solution. With regard to a positive control substance (Staurosporine), a solution of the positive control substance was prepared in a similar manner.
Five microliters of a test substance solution with a concentration of four times prepared by using Assay Buffer, 5 μL of a solution of a substrate (Blk/Lyntide)/ATP/a metal (Mg) with a concentration of four times and 10 μL of a solution of Syk kinase with a concentration of two times were mixed in a well of a 384-well plate made of polypropylene, and the mixture was subjected to a reaction at room temperature for 1 hour (the final concentration of the substrate was 1,000 nmol/L, and the final concentration of ATP was 26 μmol/L). To the mixture, 60 μL of Termination Buffer (QuickScout Screening Assist MSA; Carna Biosciences, Inc.) was added to stop the reaction. The substrate peptide and the phosphorylated peptide in the reaction solution were separated, and were quantified. The kinase reaction was evaluated by a product ratio (P/(P+S)) calculated from a peak height (S) of the substrate peptide and a peak height (P) of the phosphorylated peptide.

Structures are written as SMILES. Bounds are passed on as bounds.

Chain of Lck (P06239 whole entry, species assumed): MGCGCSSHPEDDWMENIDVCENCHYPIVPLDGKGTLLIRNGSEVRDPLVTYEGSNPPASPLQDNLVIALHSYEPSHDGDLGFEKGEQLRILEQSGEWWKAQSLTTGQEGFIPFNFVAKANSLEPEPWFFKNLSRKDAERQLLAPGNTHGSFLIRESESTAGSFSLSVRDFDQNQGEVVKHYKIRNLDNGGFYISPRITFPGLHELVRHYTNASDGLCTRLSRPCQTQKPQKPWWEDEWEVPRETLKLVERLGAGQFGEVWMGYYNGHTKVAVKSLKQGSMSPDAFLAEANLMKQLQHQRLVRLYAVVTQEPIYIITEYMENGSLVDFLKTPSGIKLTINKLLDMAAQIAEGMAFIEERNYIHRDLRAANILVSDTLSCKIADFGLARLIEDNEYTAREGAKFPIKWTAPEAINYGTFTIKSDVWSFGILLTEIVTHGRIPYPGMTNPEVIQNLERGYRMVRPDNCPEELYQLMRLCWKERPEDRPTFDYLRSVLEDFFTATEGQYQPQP

Take `Cc1nn(C)cc1Nc1nc(N)c2c(-c3ccc4[nH]ccc4c3)nn(C(C)C)c2n1` [Example 1, N^6-(1,3-dimethyl-1H-pyrazol-4-yl)-3-(1H-indol-5-yl)-1-isopropyl-1H-pyrazolo[3,4-d]pyrimidine-4,6-diamine]: at Lck, the IC50 (usually the concentration that inhibits the measured activity by half) was above 10 µM. Also, at Syk kinase, the inhibition – broadly, the share of the control response that was lost under treatment – at 1 µM was determined as 0%.
Compound `CC(C)n1nc(-c2ccc(F)c3[nH]ncc23)c2c(N)nc(Nc3ccc(S(C)(=O)=O)cc3F)nc21` [Example 4-3, 3-(7-Fluoro-1H-indazol-4-yl)-N^6-[2-fluoro-4-(methylsulfonyl)phenyl]-1-isopropyl-1H-pyrazolo[3,4-d]pyrimidine-4,6-diamine] yielded an IC50 on Lck of 2.5 µM. Moreover, on Syk kinase, the inhibition at 1 µM was 0%.
For `CC(C)n1cc(-c2ccc(C#N)c3[nH]ncc23)c2c(N)nc(Nc3ccc(S(C)(=O)=O)cc3F)nc21` [Example 13-1, 4-(4-Amino-2-{[2-fluoro-4-(methylsulfonyl)phenyl]amino}-7-isopropyl-7H-pyrrolo[2,3-d]pyrimidin-5-yl)-1H-indazole-7-carbonitrile] the same measures were above 10 µM and 0%.
